Assay results published in US4670431A, “Beta-lactam antibacterial agents” (Beecham Group p.l.c., priority 1983, dated 1987).
Converted amounts (≈) assume the structure as drawn. Where a name gives a salt, the structure may show the parent alone.

The molecules below were run on P. mirabilis 889 (assay: MIC against P. mirabilis 889). Details: not given.
Assay type: cell-based, Proteus mirabilis
Description: The antibiotic compounds of the present invention are active against a wide range of gram negative and gram positive organisms including E. coli such as, for example ESS, JT4, JT425 and NCTC 10418; Pseudomonas Spp. such Ps.aeruginosa for example 10662 and Dalgleish; Serratia marcescens US32; Klebsiella aerogenes A; Enterobacter cloacae N1; P.mirabilis such as, for example C977 and 889; P.morganii, P.rettgeri; B.subtilis; Staph aureus such as, for example Oxford and Russell; N.catarrhalis 1502; Strep faecalis I; β-Haemolytic Strep CN10. The MIC data included in the following examples is representative of the activity of the compounds of the present invention.

Point of comparison: `CCN1CCN(C(=O)N[C@@H](C(=O)N[C@]2(NC=O)C(=O)N3C(C(=O)O)=C(CSc4nnnn4C)C[S+]([O-])[C@@H]32)c2ccc(OC(C)=O)c(OC(C)=O)c2)C(=O)C1=O` (single isomer, unassigned) [Example 5 Isomer B, Sodium 7β-[D-2-(3,4-diacetoxyphenyl)-2-[(4-ethyl-2,3-dioxopiperazin-1-yl)carbonylamino]acetamido]-7α-formamido-3-[(1-methyl-1H-tetrazol-5-yl)thiomethyl]-ceph-3-em-4-carboxylate-1-oxide], “MIC against P. mirabilis 889” value 0.06 µg/mL. Against it:
- CCN1CCN(C(=O)N[C@@H](C(=O)N[C@]2(NC=O)C(=O)N3C(C(=O)O)=C(COC(C)=O)C[S+]([O-])[C@@H]32)c2ccccc2)C(=O)C1=O (single isomer, unassigned) [Example 3 Isomer B, Sodium 7β-[D-2-[(4-Ethyl-2,3-dioxopiperazin-1-yl)carbonylamino]-2-phenylacetamido]-7α-formamidocephalosporanate-1-oxide] — 4.2-fold higher, 0.25 µg/mL

Same assay, conditions: Proteus mirabilis, 889

Point of comparison: `CCN1CCN(C(=O)N[C@@H](C(=O)N[C@]2(NC=O)C(=O)N3C(C(=O)O)=C(CSc4nnnn4CC(=O)O)C[S@+]([O-])[C@@H]32)c2ccc(OC(C)=O)c(OC(C)=O)c2)C(=O)C1=O` (single isomer, unassigned) [Example 15 Isomer A, 3-[(1-Carboxymethyl-1H-tetrazol-5-yl)thiomethyl]-7β-[D-2(3,4-diacetoxyphenyl)-2-[(4-ethyl-2,3-dioxopiperazin-1-yl)carbonylamino]acetamido]-7α-formamidoceph-3-em-4-carboxylic acid-1-oxide, disodium salt], MIC 0.5 µg/mL. Against it:
- CCN1CCN(C(=O)N[C@@H](C(=O)N[C@]2(NC=O)C(=O)N3C(C(=O)O)=C(CSc4nnnn4C)C[S@@+]([O-])[C@@H]32)c2ccccc2)C(=O)C1=O [Example 8(d), Sodium 7β-[D-2-[(4-Ethyl-2,3-dioxopiperazin-1-yl)carbonylamino]-2-phenylacetamido]-7α-formamido-3-[(1-methyl-1H-tetrazol-5-yl)thiomethyl]ceph-3-em-4-carboxylate-1α-oxide] — 2-fold lower, 0.25 µg/mL
- CCN1CCN(C(=O)N[C@@H](C(=O)N[C@]2(NC=O)C(=O)N3C(C(=O)[O-])=C(C[n+]4ccccc4)CS[C@@H]32)c2ccccc2)C(=O)C1=O [Example 7(c), 7β-[D-2-[(4-Ethyl-2.3-dioxopiperazin-1-yl)carbonylamino]-2-phenylacetamido]-7α-formamido-3-pyridiniummethyl-ceph-3-em-4-carboxylate] — the same, 0.5 µg/mL (≈ 0.787 µM)
- CCN1CCN(C(=O)N[C@@H](C(=O)N[C@]2(NC=O)C(=O)N3C(C(=O)O)=C(CSc4nnnn4C)C[S@+]([O-])[C@@H]32)c2ccc(O)c(O)c2)C(=O)C1=O [Example 16(d), Sodium 7β-[D-2-(3,4-dihydroxyphenyl)-2-[(4-ethyl-2,3-dioxopiperazin-1-yl)carbonylamino]acetamido]-7α-formamido-3-[(1-methyl-1H-tetrazol-5-yl)thiomethyl]-ceph-3-em-4-carboxylate-1β-oxide] — 2-fold higher, 1 µg/mL
